Results as given in patent US7632819B1, “Methods and compositions for inhibiting PKC delta cleavage for treatment and prevention of neurodegeneration and apoptosis” (Iowa State University Research Foundation, Inc., priority 2004, dated 2009).
Like-named read-outs stand apart in the source and are kept apart here. The star is where a group is joined. Cbz = O=C(OCc1ccccc1)*; CH2F = FC*

Tests used:
[1] = MTT cytotoxicity assay, MPP+- and 6-OHDA-induced cytotoxicity; conditions: rat
Source text: (§1) Chemicals. Protease cocktail, ATP, protein-A-sepharose, protein-G-sepharose and anti-â-actin antibody were obtained from Sigma-Aldrich (St. Louis, Mo.); mouse tyrosine hydroxylase antibody was purchased from Chemicon (Temecula, Calif.); the rabbit polyclonal antibody for tyrosine hydroxylase was obtained from Calbiochem Bioscience, Inc. (King of Prussia, Pa.); rabbit PKCδ antibody was purchased from Santa Cruz Biotechnology, Inc. (Santa Cruz, Calif.); anti-rabbit and anti-mouse secondary antibodies and the ECL chemiluminescence kit were purchased from Amersham Pharmacia Biotech. (Piscataway, N.J.). Alexa 488 conjugated antirabbit/mouse, Cy3 conjugated anti-rabbit/mouse antibody and Hoechst 33342 were purchased from Molecular Probes, Inc. (Eugene, Oreg.). [ã-32P]ATP was purchased from Perkin Elmer Life Science Products (Boston, Mass.). The Bradford protein assay kit was purchased from Bio-Rad Laboratories (Hercules, Calif.). RPMI, fetal bovine serum, -glutamine, penicillin, and streptomycin were purchased from Invitrogen (Gaithersburg, Md.). Quantity One 4.2.0 software was purchased from Bio-Rad. Design and synthesis of z-DIPD-fmk (SEQ ID NO:5). To develop a cell permeable peptide inhibitor to specifically block PKCδ cleavage, we designed the tetrapeptide Asp-Ile-Pro-Asp (DIPD) (SEQ ID NO:5) corresponding to position 324-327 in rat PKCδ cDNA representing the caspase-3 cleavage site. Since this peptide is directed against the caspase-3 cleavage site of PKCδ, it should prevent the proteolytic cleavage and activation of PKCδ mediated by caspase-3. The custom synthesis of the tetrapeptide Z-Asp(OMe)-Ile-Pro-Asp(OMe)-FMK (SEQ ID NO:5) was performed at MP Biomedicals (Irvine, Calif.), a quality company that specializes in developing cell permeable peptide inhibitors directed against apoptosis cell signaling molecules. […]

PKCδ = assay: Immunoprecipitation kinase assay (histone H1 phosphorylation) in N27 cells; type: cell-based, rat; conditions: toxin alone
Source text: as §1, with “molecules. Briefly, the synthesis was performed with the reaction of Boc-D(OMe)-OH with MBFM (Magnesium benzyl fluoromalonate) to produce Beta-Keto fluoroester, followed by hydrogenation with Pd/c to produce Boc-D(OMe)FK, which was converted into Tfa salt using trifluoroacetic acid. Coupling of Tfa salt with Z-D(OMe)—I—P—OH in DMF with HOBT, HBTU DIEA and workup produced a crude product which was purified by column chromatography over silica gel. Elution with EtOAC:MeOH 95:5 gave pure fractions which were mixed and dried. Crystallization with EtOAC/Hexane, filtration and drying produced the pure product. Animals. Time-pregnant C57/bL mice were housed under standard conditions: constant temperature (22±1° C.), humidity (relative, 30%) and a 12-h light/dark cycle with free access to food and water. The animals and protocol procedures were approved and supervised by the Committee on Animal Care (COAC) at Iowa State University. Cell culture.” for “molecules.”

N27 cells = conditions: for increase in DNA fragmentation compared to untreated cells: toxin alone
Method: […] Z is the abbreviation for N-benzyloxycarbonyl. Untreated cells were used as control samples. After the treatment, the cells were collected by trypsinization (Trypsin 0.25%, 1 mM EDTA), centrifuged at 200×g for 5 min, washed with PBS twice, then lysed. The lysate was used for DNA fragmentation assay.
DNA fragmentation assays were performed using a recently developed Cell Death Detection ELISA Plus Assay Kit. This is a fast, highly sensitive and reliable assay for the detection of early changes in apoptotic cell death. After treatments, 20 μl of cell lysate was processed according to the manufacturer's protocol. The assay solution consisted of a mixture of anti-histone biotin and anti-DNA-HRP directed against various histones and antibodies to both single stranded DNA and double stranded DNA, the major constituents of nucleosomes. After 2 hr incubation, unbound components were removed by washing with the incubation buffer supplied with the kit. Quantification of the nucleosomes retained by anti-DNA-HRP in the immunocomplex was determined spectrophotometrically with ABTS (2,2′-azino-di[3-ethoxybenzyl thiazoline sulfonate) as a HRP substrate (supplied with the kit). Measurements were made at 405 nm against an ABTS solution as a blank (reference wave length 490 nm).
(§2) Chemicals. Protease cocktail, ATP, protein-A-sepharose, protein-G-sepharose and anti-â-actin antibody were obtained from Sigma-Aldrich (St. Louis, Mo.); mouse tyrosine hydroxylase antibody was purchased from Chemicon (Temecula, Calif.); the rabbit polyclonal antibody for tyrosine hydroxylase was obtained from Calbiochem Bioscience, Inc. (King of Prussia, Pa.); rabbit PKCδ antibody was purchased from Santa Cruz Biotechnology, Inc. (Santa Cruz, Calif.); anti-rabbit and anti-mouse secondary antibodies and the ECL chemiluminescence kit were purchased from Amersham Pharmacia Biotech. (Piscataway, N.J.). Alexa 488 conjugated antirabbit/mouse, Cy3 conjugated anti-rabbit/mouse antibody and Hoechst 33342 were purchased from Molecular Probes, Inc. (Eugene, Oreg.). [ã-32P]ATP was purchased from Perkin Elmer Life Science Products (Boston, Mass.). The Bradford protein assay kit was purchased from Bio-Rad Laboratories (Hercules, Calif.). RPMI, fetal bovine serum, -glutamine, penicillin, and streptomycin were purchased from Invitrogen (Gaithersburg, Md.). Quantity One 4.2.0 software was purchased from Bio-Rad. Design and synthesis of z-DIPD-fmk (SEQ ID NO:5). To develop a cell permeable peptide inhibitor to specifically block PKCδ cleavage, we designed the tetrapeptide Asp-Ile-Pro-Asp (DIPD) (SEQ ID NO:5) corresponding to position 324-327 in rat PKCδ cDNA representing the caspase-3 cleavage site. Since this peptide is directed against the caspase-3 cleavage site of PKCδ, it should prevent the proteolytic cleavage and activation of PKCδ mediated by caspase-3. The custom synthesis of the tetrapeptide Z-Asp(OMe)-Ile-Pro-Asp(OMe)-FMK (SEQ ID NO:5) was performed at MP Biomedicals (Irvine, Calif.), a quality company that specializes in developing cell permeable peptide inhibitors directed against apoptosis cell signaling molecules. Briefly, the synthesis was performed with the reaction of Boc-D(OMe)-OH with MBFM (Magnesium benzyl fluoromalonate) to produce Beta-Keto fluoroester, followed by hydrogenation with Pd/c to produce Boc-D(OMe)FK, which was converted into Tfa salt using trifluoroacetic acid. Coupling of Tfa salt with Z-D(OMe)—I—P—OH in DMF with HOBT, HBTU DIEA and workup produced a crude product which was purified by column chromatography over silica gel. Elution with EtOAC:MeOH 95:5 gave pure fractions which were mixed and dried. Crystallization with EtOAC/Hexane, filtration and drying produced the pure product. Animals.

caspase-3 [2] = biological target: T1, caspase-3 (Rattus norvegicus, UniProt P55213); assay: Caspase-3 activity assay with fluorogenic substrate Ac-DEVD-AFC in treated N27 cells; type: cell-based; conditions: toxin alone
T1 construct: N27 cells were exposed to either MPP^+ or 6-OHDA in the absence or presence of z-DIPD-fmk; endogenous in cells; host or cells: N27 rat mesencephalic dopaminergic neuronal cells
T1 sequence (P55213 29-175 limits assumed): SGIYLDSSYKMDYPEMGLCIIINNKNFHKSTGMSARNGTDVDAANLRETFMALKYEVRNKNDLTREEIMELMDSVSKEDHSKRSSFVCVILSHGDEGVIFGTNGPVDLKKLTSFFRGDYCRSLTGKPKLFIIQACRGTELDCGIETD
T1 sequence (P55213 176-277 limits assumed): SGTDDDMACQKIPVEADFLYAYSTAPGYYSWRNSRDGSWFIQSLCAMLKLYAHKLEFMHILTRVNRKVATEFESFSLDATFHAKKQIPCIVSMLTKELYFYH
Source text: as §2, with “Animals. Time-pregnant C57/bL mice were housed under standard conditions: constant temperature (22±1° C.), humidity (relative, 30%) and a 12-h light/dark cycle with free access to food and water. The animals and protocol procedures were approved and supervised by the Committee on Animal Care (COAC) at Iowa State University. Cell culture. Rat mesencephalic dopaminergic neuronal (N27) cells were cultured as described earlier (Anantharam et al., 2002). Briefly, cells were grown in RPMI 1640 medium containing 10% fetal bovine serum, 2 mM L-glutamine, 50 units of penicillin, and 50 μg/ml streptomycin. Cells were maintained in a humidified atmosphere of 5% CO2 at 37° C. Primary mesencephalic neuronal cultures were prepared from the ventral mesencephalon of gestational 18-day-old mice embryos as described previously (Yang et al., 2004). Mesencephalic tissues were dissected and maintained in ice-cold Ca2+-free HBSS and then dissociated in HBSS solution containing trypsin-EDTA (0.25%) for 20 min at 37° C. […]” for “Animals.”

[3] = test system: N27 mesencephalic neuronal cells; assay: MTT cytotoxicity assay, MPP+- and 6-OHDA-induced cytotoxicity; conditions: N27 cells, 300 μM MPP+ 36 hr, toxin alone
Source text: as §1

caspase-3 [4] = biological target: T2, caspase-3 (rat, UniProt P55213 29-277, limits assumed); assay: cell-based or functional assay
T2 sequence (looked up): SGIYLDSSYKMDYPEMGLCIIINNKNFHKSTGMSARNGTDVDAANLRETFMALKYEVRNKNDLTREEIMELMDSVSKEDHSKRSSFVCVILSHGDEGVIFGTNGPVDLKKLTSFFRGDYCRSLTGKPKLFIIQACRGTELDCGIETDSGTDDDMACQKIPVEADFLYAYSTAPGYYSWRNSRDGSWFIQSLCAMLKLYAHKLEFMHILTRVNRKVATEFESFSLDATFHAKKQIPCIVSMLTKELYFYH

## NCCc1cc(O)c(O)cc1O [6-OHDA, 6-hydroxydopamine, reference compound]
[1]
  cytotoxicity at 24 h, 100 μM: > 60%
PKCδ; 100 μM 6-OHDA 24 hr
  increase in PKCδ enzymatic activity over the untreated cells: 235%
N27 cells; 100 μM 6-OHDA 24 hr
  increase in DNA fragmentation compared to untreated cells: 93%
caspase-3 [2]; 100 μM 6-OHDA 24 hr
  increase in caspase-3 enzyme activity: ~2.5 fold

## C[n+]1ccc(-c2ccccc2)cc1 [MPP^+, 1-methyl-4-phenylpyridinium, reference compound]
[3]
  loss of cell viability (MTT): more than 40%
PKCδ; 300 μM MPP+ 36 hr
  increase in PKCδ enzymatic activity over the untreated cells: 333%
N27 cells; 300 μM MPP+ 36 hr
  increase in DNA fragmentation compared to untreated cells: 75%
caspase-3 [2]; 300 μM MPP+ 36 hr
  increase in caspase-3 enzyme activity: ~2.5 fold

## COC(=O)CC[C@H](NC(=O)[C@H](CC(=O)OC)NC(=O)OCc1ccccc1)C(=O)N[C@H](C(=O)N[C@@H](CC(=O)OC)C(=O)CF)C(C)C [z-DEVD-fmk, Asp-Glu-Val-Asp-FMK, reference compound]
N27 cells; 100 μM 6-OHDA 24 hr, concentration not stated or dose-response 1-50 μM
  effect on 6-OHDA-induced DNA fragmentation / apoptotic cell death: dose dependently blocked
N27 cells; read-out: IC50, 6-OHDA-induced DNA fragmentation (apoptotic cell death), 100 μM 6-OHDA 24 hr, inhibitor 1-50 μM
  IC50: 18 µM

B1: z-DEVD-fmk (Asp-Glu-Val-Asp-FMK) (peptide)
peptide: Cbz-DEVD-CH2F
SMILES: CC(C)[C@H](NC(=O)[C@H](CCC(=O)O)NC(=O)[C@H](CC(=O)O)NC(=O)OCc1ccccc1)C(=O)N[C@@H](CC(=O)O)C(=O)CF
caspase-3 [4]
  IC50 for inhibition of 6-OHDA-induced DNA fragmentation (Cell Death Detection ELISA) in N27 cells: 18 µM

B2: Z-Asp(OMe)-Ile-Pro-Asp(OMe)-FMK (N-benzyloxycarbonyl-Asp(OMe)-Ile-Pro-Asp(OMe)-fluoromethyl ketone) (peptide)
peptide: Cbz-D(OMe)IPD(OMe)-CH2F
SMILES: CC[C@H](C)[C@H](NC(=O)[C@H](CC(=O)OC)NC(=O)OCc1ccccc1)C(=O)N1CCC[C@H]1C(=O)N[C@@H](CC(=O)OC)C(=O)CF
caspase-3 [4]
  IC50 for inhibition of 6-OHDA-induced DNA fragmentation (Cell Death Detection ELISA) in N27 cells: 6 µM
